Peptide text beside a SMILES is read from it.
How the values were obtained:
[1] = system: HIV-1 RNA; experiment: Northern blot of HIV-1 RNA in infected H-9 cells; type: cell-based
Description: To study proviral DNA and viral RNA synthesis, DNA and RNA from HIV-1 infected H-9 cells cultured in the presence of a small peptide were prepared at various time points (0-48 h).
By Northern blot analysis, three RNA bands (9.2, 4.3, 2.0 kb) were detected 24-48 h after infection. The 9.2 kb RNA acts as both the genomic RNA and as the mRNA for the gag and pol genes. The 4.3 kb singly-spliced RNA represents at least the env gene, and the multiply-spliced 2 kb RNA encodes for the regulatory genes.

[2] = system: HIV-1 strain HTLV-IIIB; details: passaged in serial dilutions for more than six months
[3] = system: various cell lines; experiment: ratio of CC50/IC50 in vitro; type: cell-based
Description: The in vitro 50% cytotoxic concentrations (CC50) of various cell lines was also assessed. Accordingly, different concentrations of GPG-NH2, up to 40 mM, was supplemented into the medium culture of T-cell lines HUT78, H9, CEM-SS, MT-2 and (non) induced ACH-2, as well as, the macrophage derived cell lines […], THP-1 and (non) induced U-1 cells. After 3 days of incubation, the number of cells were counted.

[4] = system: HIV-1Bru wild-type; experiment: infectivity in MT-2 cells, p24 ELISA, wild-type; type: cell-based
Description: Accordingly, the ability of GPG-NH2 to inhibit the infectivity of wild-type and V3-loop deletion mutants (GPG domain) in MT-2 cells was determined. In these experiments, approximately 200,000 MT-2 cells were infected with HIV-1Bru wild-type and GPG-deleted mutants mp8 and mp10 at 25 TCID50 to test the inhibitory effect of GPG-NH2 The MT-2 cells were resuspended in 1 ml of RPMT 1640 medium supplemented with 10% (v/v) heat-inactivated fetal bovine serum (FBS, GIBCO), penicillin (100μ/ml), streptomycin (100μ/ml) and Polybrene (Sigma 2 μg/ml) with or without the presence of GPG-NH2 at concentration 20 of μM and 100 μM. Thereafter, viruses were added at 25 TCID50 in a volume of 20-30 μl. Cells were incubated with virus at 37° C. for 16 hr then loosely pelleted by centrifugation at 170×g for 7 minutes. The cells were then washed three times in RPMI medium without peptides at room temperature by cell sedimentation at 170×g for 7 minutes as above. After the final wash, the cells were resuspended in RPMI culture medium in 24-well plate (Costar corporation) then kept at 37° C. in 5% CO2 with humidity. Culture supernatants were collected when medium was changed at day 4, 7, 11 and 14 post infection. To monitor the replication of virus, HIV-1 p24 antigen protein in the supernatants from day 7 and 14 was assayed by a ELISA kit (Abbott Laboratories) which has a linear dose-response range from 20 pg to 640 pg of p24 per ml and the p24 amount can be determined with aid of the regression line.

[5] = system: HIV-1 SF-2 virus; experiment: electron microscopy of HIV-1 particles from infected HUT78 cells; type: cell-based; details: 1 μM or 10 μM added 3, 5 or 7 days post infection; cells fixed day 14
Description: In this set of experiments, HUT78 cells were infected with HIV-1 SF-2 virus at 300TCID50 for 1 hr at 37° C. Subsequently, the infected cells were washed and pelleted 3 times, as described in Example 2. Thereafter, the cells were resuspended in RPMI culture medium supplemented with 10% FBS, antibiotics (100 u/ml) and polybrene (3.2 μg/ml). GPG-NH2 was then added into the cell cultures 3, 5 or 7 days post infection at concentration of 1 μM or 10 μM. A control sample was administered 0.5μM Ritonavir (a protease inhibitor).
The cells were cultured until day 14, at which point, the cells were fixed in 2.5% glutaraldehyde by conventional means. The fixed cells were then postfixed in 1% OSO4 and were dehydrated, embedded with epoxy resins, and the blocks were allowed to polymerize. Epon sections of virus infected cells were made approximately 60-80 nm thin in order to accommodate the width of the nucleocapsid. The sections were mounted to grids stained with 1.0% uranyl acetate and were analyzed in a Zeiss CEM 902 microscope at an accelerating voltage of 80 kV. The microscope was equipped with a spectrometer to improve image quality and a liquid nitrogen cooling trap was used to reduce beam damage. The grids having sections of control and GPG-NH2 incubated cells were examined in several blind studies.

[6] = system: influenza; experiment: inhibition of influenza virus; type: cell-based

## NCC(=O)N1CCC[C@H]1C(=O)NCC(N)=O [GPG-NH2, glycyl-prolyl-glycine amide] (H-Gly-Pro-Gly-NH2)
[1]; 20 μM, up to 48 h post infection
  expression of HIV-1 RNAs (9.2, 4.3, 2.0 kb): no inhibitory effect
[1]; 200 μM and 2,000 μM, 48 h after infection
  HIV-1 RNA: a reduction of HIV-1 RNA was noticed
[2]
  development of resistance in vitro: without overt signs of development of resistance
[3]
  ratio of CC50/IC50 in vitro: > 10^4
[4]; GPG 20 μM, Day 7, WT
  p24: 23900 pg/mL
  reduction (%): 29%
[4]; GPG 20 μM, Day 14, WT
  p24: 223000 pg/mL
  reduction (%): 38%
[4]; GPG 100 μM, Day 7, WT
  p24: 3390 pg/mL
  reduction (%): 90%
[4]; GPG 100 μM, Day 14, WT
  p24: 181000 pg/mL
  reduction (%): 49%
[5]
  viral nucleocapsid formation, electron microscopy: interrupted proper viral nucleocapsid formation
[6]
  inhibition of influenza virus: failed inhibit either influenza or polio viruses

Source: patent publication US20020091086A1, “Peptides that block viral infectivity and methods of use thereof” (priority 1999, published 2002)
